The target in one test is T1, PTGES2 (Homo sapiens, UniProt Q9H7Z7).
T1 construct: Isotopically labeled H460 cell lines were generated as described above; endogenous in cells; host or cells: H460 (SILAC-labelled)
Nature of the test: ABPP-SILAC BPK-29yne competition in H460 cells: PTGES2. Type of test: cell-based. Particulars: 20 μM. The protocol:
Isotopically labeled H460 cell lines were generated as described above. Light and heavy cells were treated with compounds (20 μM) or DMSO, respectively, for 3 h, followed by labeling with the BPK-29yne (5 μM) for 30 min. Cells were washed once ice-cold PBS and lysed in 1% Triton 100-X dissolved in PBS with protease inhibitors (Sigma) by sonication. Lysate was adjusted to 1.5 mg ml^−1 in 500 μL. Samples were conjugated by CuAAC to Biotin-PEG4-azide (5 μL of 10 mM stocks in DMSO, final concentration=100 μM). CuAAC “click” mix contained TCEP, TBTA ligand and CuSO4 as detailed for isoTOP-ABPP sample preparation. Samples were further processed as detailed in: isoTOP-ABPP streptavidin enrichment and isoTOP-ABPP trypsin TEV digestion with the following exception: after overnight incubation at 37° C. with trypsin, tryptic digests were separated from the beads with Micro Bio-Spin columns (Bio-Rad) by centrifugation (1,000×g, 1 min). Beads were rinsed once with water (200 μL) and combined with tryptic digests. […]
The MS2 spectra data were extracted and searched using RAW Convertor and ProLuCID algorithm as described in isoTOP-ABPP peptide and protein quantification. […] Ratios of heavy/light (DMSO/test compound) peaks were calculated using in-house CIMAGE software. […] The mean R values and standard deviation for multiple biological experiments were calculated from the average ratios from each replicate. […]

For another test, the target named is T2, TXNDC12 (Homo sapiens, UniProt O95881).
T2 construct: endogenous in cells; host or cells: H460
T2 sequence (O95881 27-172): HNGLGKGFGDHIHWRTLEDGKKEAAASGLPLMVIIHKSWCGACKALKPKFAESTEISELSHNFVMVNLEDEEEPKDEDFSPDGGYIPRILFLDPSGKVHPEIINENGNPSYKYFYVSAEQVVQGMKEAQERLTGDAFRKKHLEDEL
Description: isoTOP-ABPP of compound-treated H460 cells: TXNDC12. Format: cell-based. Conditions: TXNDC12 C66; 40 μM. The protocol: For analysis of NR0B1 ligands or control compound reactivity, H460 cells or H460 cells expressing luciferase in a 10 cm plate were incubated with indicated compounds in serum/dye-free RPMI for 3 hours at 37° C. Cells were washed once ice-cold PBS and lysed in 1% Triton X-100 dissolved in PBS with protease inhibitors (Sigma) by sonication. Samples were clarified by centrifugation for 10 min at 16,000×g. Lysate was adjusted to 1.5 mg ml^−1 in 500 μL.
Samples were labeled for 1 h at ambient temperature with 100 μM iodoacetamide alkyne (1, IA-alkyne, 5 μL of 10 mM stock in DMSO). Samples were conjugated by copper-catalyzed azide-alkyne cycloaddition (CuAAC) to isotopically labeled, TEV-cleavable tags (TEV-tags). Heavy CuAAC reaction mixtures was added to the DMSO-treated or shGFP control samples and light CuAAC reaction mixture was added to compound-treated or shNRF2 samples. The CuAAC reaction mixture consisted of TEV tags (light or heavy, 10 μL of 5 mM stocks in DMSO, final concentration=100 μM), 1 mM tris(2-carboxyethyl)phosphine hydrochloride (TCEP; fresh 50× stock in water, final concentration=1 mM), ligand (17× stock in DMSO:t-butanol 1:4, final concentration=100 μM) and 1 mM CuSO4 (50× stock in water, final concentration=1 mM). The samples were allowed to react for 1 h at which point the samples were centrifuged (16,000×g, 5 min, 4° C.). […]

Each structure is given as a SMILES string.

T1 sequence (Q9H7Z7 whole entry): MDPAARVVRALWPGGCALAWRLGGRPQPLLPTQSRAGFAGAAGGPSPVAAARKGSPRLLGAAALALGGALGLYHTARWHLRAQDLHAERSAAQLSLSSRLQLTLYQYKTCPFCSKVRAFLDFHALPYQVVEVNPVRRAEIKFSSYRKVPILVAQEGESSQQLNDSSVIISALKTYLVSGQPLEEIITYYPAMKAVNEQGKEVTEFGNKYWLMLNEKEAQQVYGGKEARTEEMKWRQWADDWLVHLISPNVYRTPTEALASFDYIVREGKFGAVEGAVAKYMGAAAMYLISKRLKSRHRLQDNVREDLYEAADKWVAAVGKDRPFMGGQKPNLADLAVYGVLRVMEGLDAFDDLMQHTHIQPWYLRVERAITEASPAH

As for `O=C(c1ccc(N2CCOCC2)cc1)N1CCCC(N(Cc2ccccc2)C(=O)CCl)CC1` (centres unmarked) [BPK-29, N-benzyl-2-chloro-N-(1-(4-morpholinobenzoyl)azepan-4-yl)acetamide], the “BPK-29-competed BPK-29yne analysis” value on PTGES2 is listed as “Yes (Competed defined as showing R value ≥ 2.5 at 20 μM of test compound)”. The “BPK-29-competed isoTOP-ABPP analysis” value at TXNDC12 is on record as “Yes (Competed defined as showing R value ≥ 3.0 at 40 μM of test compound)”.

These data come from patent publication US20200278355A1, “CONJUGATED PROTEINS AND USES THEREOF” (THE SCRIPPS RESEARCH INSTITUTE, priority 2017, published 2020).
